According to the NIST ThermoML archive (doi:10.1021/je100850z):
Where “and” joins values, the source holds several entries; their conditions need not be identical. Identical values can stand only once. ± gives the expanded uncertainty stated by the source.

How the values were obtained:
[1] = Crystal; for vapor or sublimation pressure: Calculated from knudsen effusion weight loss; for Normal melting temperature: DTA
[2] = Molar enthalpy of transition or fusion; conditions: Crystal; DSC

O=C1c2ccccc2Cc2ccccc21 [9(10H)-anthracenone]
[1]
Conditions | vapor or sublimation pressure
346.15 K | 0.000131 ± 2.1e-05 kPa and 0.000128 ± 2.1e-05 kPa
348.14 K | 0.000162 ± 2.1e-05 kPa and 0.000156 ± 2.1e-05 kPa
351.13 K | 0.000223 ± 2.2e-05 kPa and 0.000217 ± 2.1e-05 kPa and 0.000221 ± 2.1e-05 kPa
354.18 K | 0.000299 ± 2.3e-05 kPa and 0.00029 ± 2.2e-05 kPa and 0.000307 ± 2.3e-05 kPa
355.68 K | 0.000359 ± 2.4e-05 kPa and 0.000354 ± 2.4e-05 kPa and 0.000348 ± 2.4e-05 kPa
357.19 K | 0.00041 ± 2.5e-05 kPa and 0.000405 ± 2.5e-05 kPa and 0.000396 ± 2.4e-05 kPa
360.15 K | 0.000558 ± 2.8e-05 kPa and 0.000553 ± 2.8e-05 kPa and 0.000533 ± 2.8e-05 kPa
363.14 K | 0.000744 ± 3.3e-05 kPa and 0.000727 ± 3.3e-05 kPa and 0.0007 ± 3.2e-05 kPa
365.14 K | 0.000895 ± 3.7e-05 kPa and 0.000879 ± 3.7e-05 kPa and 0.00084 ± 3.6e-05 kPa

Conditions | Molar enthalpy of transition or fusion [kcal/mol] | Normal melting temperature [°C]
[1] | – | 156.4 ± 0.5
[2] | 5.35 ± 0.143 | –

O=C1c2ccccc2C(=O)c2ccccc21 [9,10(9H,10H)-anthracenedione]
[1]
Conditions | vapor or sublimation pressure
377.06 K | 0.000173 ± 2.1e-05 kPa and 0.000164 ± 2.1e-05 kPa
379.08 K | 0.00021 ± 2.1e-05 kPa and 0.0002 ± 2.1e-05 kPa
381.26 K | 0.00025 ± 2.2e-05 kPa and 0.000246 ± 2.2e-05 kPa
383.26 K | 0.000299 ± 2.3e-05 kPa and 0.000302 ± 2.3e-05 kPa
385.26 K | 0.000359 ± 2.4e-05 kPa and 0.000352 ± 2.4e-05 kPa
391.26 K | 0.000618 ± 3e-05 kPa
393.08 K | 0.000743 ± 3.3e-05 kPa and 0.000716 ± 3.2e-05 kPa
395.03 K | 0.000886 ± 3.7e-05 kPa

Conditions | Molar enthalpy of transition or fusion [kcal/mol] | Normal melting temperature [°C]
[1] | – | 283.6 ± 0.5
[2] | 8.68 ± 0.222 | –

O=c1c2ccccc2oc2ccccc12 [9H-xanthen-9-one]
[1]
Conditions | vapor or sublimation pressure
342.22 K | 0.00013 ± 2.1e-05 kPa and 0.000132 ± 2.1e-05 kPa and 0.000129 ± 2.1e-05 kPa
344.15 K | 0.000163 ± 2.1e-05 kPa and 0.00016 ± 2.1e-05 kPa and 0.000157 ± 2.1e-05 kPa
346.26 K | 0.000197 ± 2.1e-05 kPa and 0.000201 ± 2.1e-05 kPa and 0.000196 ± 2.1e-05 kPa
348.26 K | 0.000238 ± 2.2e-05 kPa and 0.00024 ± 2.2e-05 kPa and 0.000245 ± 2.2e-05 kPa
350.26 K | 0.000301 ± 2.3e-05 kPa and 0.000303 ± 2.3e-05 kPa and 0.000295 ± 2.3e-05 kPa
354.2 K | 0.000451 ± 2.6e-05 kPa and 0.000452 ± 2.6e-05 kPa and 0.000434 ± 2.5e-05 kPa
356.21 K | 0.000553 ± 2.8e-05 kPa and 0.000546 ± 2.8e-05 kPa and 0.000529 ± 2.7e-05 kPa
358.26 K | 0.000674 ± 3.1e-05 kPa and 0.000667 ± 3.1e-05 kPa and 0.000658 ± 3.1e-05 kPa
360.15 K | 0.000814 ± 3.5e-05 kPa and 0.000799 ± 3.5e-05 kPa and 0.000781 ± 3.4e-05 kPa
362.22 K | 0.000989 ± 4e-05 kPa and 0.000954 ± 3.9e-05 kPa

Conditions | Molar enthalpy of transition or fusion [kcal/mol] | Normal melting temperature [°C]
[1] | – | 175.2 ± 0.9
[2] | 6.36 ± 0.167 | –

c1ccc2c(c1)Sc1ccccc1S2 [thianthrene]
[1]
Conditions | vapor or sublimation pressure
344.27 K | 0.000161 ± 2.1e-05 kPa and 0.000163 ± 2.1e-05 kPa
346.12 K | 0.0002 ± 2.1e-05 kPa and 0.000198 ± 2.1e-05 kPa and 0.000197 ± 2.1e-05 kPa
348.1 K | 0.000246 ± 2.2e-05 kPa and 0.000243 ± 2.2e-05 kPa and 0.000239 ± 2.2e-05 kPa
350.26 K | 0.000301 ± 2.3e-05 kPa and 0.000299 ± 2.3e-05 kPa
352.11 K | 0.00037 ± 2.4e-05 kPa and 0.000368 ± 2.4e-05 kPa and 0.000362 ± 2.4e-05 kPa
354.1 K | 0.000447 ± 2.6e-05 kPa and 0.000446 ± 2.5e-05 kPa and 0.000439 ± 2.5e-05 kPa
356.26 K | 0.000549 ± 2.8e-05 kPa and 0.00056 ± 2.8e-05 kPa and 0.000555 ± 2.8e-05 kPa
358.1 K | 0.00068 ± 3.1e-05 kPa and 0.000687 ± 3.2e-05 kPa and 0.000669 ± 3.1e-05 kPa
362.05 K | 0.000992 ± 4e-05 kPa and 0.000995 ± 4.1e-05 kPa and 0.000973 ± 4e-05 kPa
364.06 K | 0.001197 ± 9.6e-05 kPa and 0.001196 ± 9.6e-05 kPa and 0.00117 ± 9.4e-05 kPa

O=c1c2ccccc2sc2ccccc12 [thioxanthone]
[1]
Conditions | vapor or sublimation pressure
369.12 K | 0.000187 ± 2.1e-05 kPa and 0.000186 ± 2.1e-05 kPa and 0.000178 ± 2.1e-05 kPa
371.2 K | 0.000232 ± 2.2e-05 kPa and 0.000226 ± 2.2e-05 kPa and 0.000222 ± 2.1e-05 kPa
373.26 K | 0.000284 ± 2.2e-05 kPa and 0.000274 ± 2.2e-05 kPa and 0.00027 ± 2.2e-05 kPa
375.12 K | 0.000335 ± 2.3e-05 kPa and 0.00032 ± 2.3e-05 kPa and 0.000321 ± 2.3e-05 kPa
377.11 K | 0.000413 ± 2.5e-05 kPa and 0.000405 ± 2.5e-05 kPa and 0.000383 ± 2.4e-05 kPa
379.2 K | 0.000496 ± 2.7e-05 kPa and 0.000495 ± 2.7e-05 kPa and 0.00048 ± 2.6e-05 kPa
381.27 K | 0.000611 ± 2.9e-05 kPa and 0.000592 ± 2.9e-05 kPa and 0.000579 ± 2.9e-05 kPa
383.12 K | 0.000711 ± 3.2e-05 kPa and 0.000701 ± 3.2e-05 kPa and 0.000664 ± 3.1e-05 kPa
385.27 K | 0.000863 ± 3.7e-05 kPa and 0.00082 ± 3.5e-05 kPa and 0.00081 ± 3.5e-05 kPa
387.2 K | 0.001018 ± 7.9e-05 kPa and 0.001001 ± 7.8e-05 kPa and 0.000962 ± 3.9e-05 kPa

Conditions | Molar enthalpy of transition or fusion [kcal/mol] | Normal melting temperature [°C]
[1] | – | 213.5 ± 0.9
[2] | 6.79 ± 0.143 | –
